US20250295649A1, “METHOD FOR PROMOTING ELONGATION OF LONG BONE DURING CHILDHOOD TO ADOLESCENCE BY GPER-1 ACTIVATION VARIANT” (Kaohsiung Medical University, priority 2024, published 2025)

Tests used:
[1] = test system: mice; test: Growth plate cartilage structure in mice, Safranin O staining; format: in vivo; settings: subcutaneous injection from 2 weeks old
Procedure: From 2 weeks old, mice are administered GPER-1 agonists at concentrations of 10^−8 g/kg, 10^−6 g/kg, and 10^−4 g/kg through subcutaneous injection to activate GPER-1. Safranin O staining is employed to label cartilage tissue for the analysis of growth plate cartilage structure. The growth plate cartilage is categorized into the resting zone (RZ), proliferation zone (PZ), and hypertrophy zone (HZ).

[2] = test system: epiphyseal chondrocytes; test: BrdU proliferation in ex vivo cultured epiphyseal cartilage of 4-day-old rats; format: cell-based; settings: for proliferation of epiphyseal chondrocytes (BrdU): ex vivo rat epiphyseal cartilage
Procedure: After taking out the cultured epiphyseal cartilage from 4-day-old rats and culturing them ex vivo, the cartilage tissues are given GPER-1 agonists at concentrations of 0.1, 0.5, 1, and 2 μM to activate the GPER-1 of chondrocytes. Subsequently, the amount of proliferating cells in living cells is detected using Bromodeoxyuridine (5-bromo-2′-deoxyuridine, BrdU).

## CC(=O)c1ccc2c(c1)[C@H]1C=CC[C@H]1[C@@H](c1cc3c(cc1Br)OCO3)N2 (racemic) [GPER-1 agonist, (±)-1-[(3aR*,4S*,9bS*)-4-(6-Bromo-1,3-benzodioxol-5-yl)-3a,4,5,9b-tetrahydro-3H-cyclopenta[c]quinolin-8-yl]-ethenone]
[1]; 10^−4 g/kg
  thickness of the proliferative zone of the growth plate: effectively promote
  thickness of the whole growth plate: effectively promote
[1]; 10^−6 g/kg
  thickness of the proliferative zone of the growth plate: effectively promote
  thickness of the whole growth plate: effectively promote
[2]; concentrations ranging from 0.1 to 1 μM (summary statement)
  proliferation of rat chondrocytes: can promote
[2]; 0.1 μM
  proliferation of epiphyseal chondrocytes (BrdU): significantly promote
[2]; 0.5 μM
  proliferation of epiphyseal chondrocytes (BrdU): significantly promote
